Data published in the supplement of paper PMC10307832.

Assays:
Assay in all cases: relative viability (nuclei count vs DMSO), 5 days (fraction); higher = more cells survive
NCI-H460 = system: NCI-H460
In short: (§1)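 After 5 days of treatment, lung cancer cells in 1536-well plates were fixed and stained in a single step (final 0.05% Triton X-100, 1% formaldehyde, 1 ug/ml Hoechst) and their nuclei counted on 4× images. Treatment had been applied by pin tool the day after seeding as one drug alone or as a fixed anchor-drug dose with five library-drug doses (not always all listed) in √10 steps. Relative viability is the nuclei count of treated wells divided by that of vehicle wells, and values are medians of duplicate plates.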

NCI-H727 = system: NCI-H727
In short: as §1

NCI-H647 = system: NCI-H647
In short: as §1

NCI-H650 = system: NCI-H650
In short: as §1

EPLC-272H = system: EPLC-272H
In short: as §1

HOP-62 = system: HOP-62
In short: as §1

SW 1573 = system: SW 1573
In short: as §1

NCI-H2347 = system: NCI-H2347
In short: as §1

SW 900 = system: SW 900
In short: as §1

NCI-H2023 = system: NCI-H2023
In short: as §1

NCI-H1793 = system: NCI-H1793
In short: as §1

EMC-BAC-2 = system: EMC-BAC-2
In short: as §1

NCI-H520 = system: NCI-H520
In short: as §1

LOU-NH91 = system: LOU-NH91
In short: as §1

NCI-H441 = system: NCI-H441
In short: as §1

HCC-44 = system: HCC-44
In short: as §1

NCI-H2009 = system: NCI-H2009
In short: as §1

NCI-H2126 = system: NCI-H2126
In short: as §1

NCI-H1437 = system: NCI-H1437
In short: as §1

ChaGo-K-1 = system: ChaGo-K-1
In short: as §1

NCI-H2405 = system: NCI-H2405
In short: as §1

NCI-H2170 = system: NCI-H2170
In short: as §1

COCC1(CO)C(=O)C2CCN1CC2 (centres undefined) [PRIMA-1MET] + N=C(N)NC(=N)NCCc1ccccc1 [Phenformin] (partner 250 µM)
relative viability (NCI-H460; first compound 0.2 µM): 0.658
relative viability (NCI-H460; first compound 0.6325 µM): 0.495
relative viability (NCI-H460; first compound 2 µM): 0.481
relative viability (NCI-H460; first compound 6.325 µM): 0.042
relative viability (NCI-H460; first compound 20 µM): 0.0117
relative viability (NCI-H727; first compound 0.2 µM): 0.472
relative viability (NCI-H727; first compound 0.6325 µM): 0.395
relative viability (NCI-H727; first compound 2 µM): 0.387
relative viability (NCI-H727; first compound 6.325 µM): 0.342
relative viability (NCI-H727; first compound 20 µM): 0.124
relative viability (NCI-H647; first compound 0.2 µM): 0.405
relative viability (NCI-H647; first compound 0.6325 µM): 0.546
relative viability (NCI-H647; first compound 2 µM): 0.453
relative viability (NCI-H647; first compound 6.325 µM): 0.514
relative viability (NCI-H647; first compound 20 µM): 0.0596
relative viability (NCI-H650; first compound 0.2 µM): 0.595
relative viability (NCI-H650; first compound 2 µM): 0.433
relative viability (NCI-H650; first compound 6.325 µM): 0.482
relative viability (NCI-H650; first compound 20 µM): 0.438
relative viability (EPLC-272H; first compound 2 µM): 0.286
relative viability (EPLC-272H; first compound 6.325 µM): 0.314
relative viability (EPLC-272H; first compound 20 µM): 0.085
relative viability (HOP-62; first compound 0.2 µM): 0.668
relative viability (HOP-62; first compound 0.6325 µM): 0.686
relative viability (HOP-62; first compound 2 µM): 0.648
relative viability (HOP-62; first compound 6.325 µM): 0.694
relative viability (HOP-62; first compound 20 µM): 0.311
relative viability (SW 1573; first compound 0.2 µM): 0.408
relative viability (SW 1573; first compound 0.6325 µM): 0.291
relative viability (SW 1573; first compound 2 µM): 0.393
relative viability (SW 1573; first compound 6.325 µM): 0.22
relative viability (SW 1573; first compound 20 µM): 0.0256
relative viability (NCI-H2347; first compound 0.2 µM): 0.265
relative viability (NCI-H2347; first compound 0.6325 µM): 0.366
relative viability (NCI-H2347; first compound 2 µM): 0.231
relative viability (NCI-H2347; first compound 6.325 µM): 0.28
relative viability (NCI-H2347; first compound 20 µM): 0.387
relative viability (SW 900; first compound 0.2 µM): 0.665
relative viability (SW 900; first compound 0.6325 µM): 0.61
relative viability (SW 900; first compound 2 µM): 0.492
relative viability (SW 900; first compound 6.325 µM): 0.0861
relative viability (SW 900; first compound 20 µM): 0.105
relative viability (NCI-H2023; first compound 0.2 µM): 0.453
relative viability (NCI-H2023; first compound 0.6325 µM): 0.447
relative viability (NCI-H2023; first compound 2 µM): 0.398
relative viability (NCI-H2023; first compound 6.325 µM): 0.405
relative viability (NCI-H2023; first compound 20 µM): 0.284
relative viability (NCI-H1793; first compound 0.2 µM): 0.465
relative viability (NCI-H1793; first compound 0.6325 µM): 0.32
relative viability (NCI-H1793; first compound 6.325 µM): 0.444
relative viability (NCI-H1793; first compound 20 µM): 0.326
relative viability (EMC-BAC-2; first compound 0.2 µM): 0.642
relative viability (EMC-BAC-2; first compound 0.6325 µM): 0.564
relative viability (EMC-BAC-2; first compound 6.325 µM): 0.609
relative viability (EMC-BAC-2; first compound 20 µM): 0.352
relative viability (NCI-H520; first compound 0.2 µM): 0.605
relative viability (NCI-H520; first compound 0.6325 µM): 0.501
relative viability (NCI-H520; first compound 2 µM): 0.314
relative viability (NCI-H520; first compound 6.325 µM): 0.289
relative viability (NCI-H520; first compound 20 µM): 0.155
relative viability (LOU-NH91; first compound 0.2 µM): 0.724
relative viability (LOU-NH91; first compound 0.6325 µM): 0.667
relative viability (LOU-NH91; first compound 2 µM): 0.554
relative viability (LOU-NH91; first compound 6.325 µM): 0.712
relative viability (LOU-NH91; first compound 20 µM): 0.392
relative viability (NCI-H441; first compound 0.2 µM): 0.872
relative viability (NCI-H441; first compound 0.6325 µM): 0.762
relative viability (NCI-H441; first compound 2 µM): 0.838
relative viability (NCI-H441; first compound 6.325 µM): 0.657
relative viability (NCI-H441; first compound 20 µM): 0.183
relative viability (HCC-44; first compound 0.2 µM): 0.265
relative viability (HCC-44; first compound 0.6325 µM): 0.137
relative viability (HCC-44; first compound 2 µM): 0.244
relative viability (HCC-44; first compound 6.325 µM): 0.2
relative viability (HCC-44; first compound 20 µM): 0.236
relative viability (NCI-H2009; first compound 0.2 µM): 0.497
relative viability (NCI-H2009; first compound 0.6325 µM): 0.456
relative viability (NCI-H2009; first compound 2 µM): 0.519
relative viability (NCI-H2009; first compound 6.325 µM): 0.53
relative viability (NCI-H2009; first compound 20 µM): 0.217
relative viability (NCI-H2126; first compound 0.2 µM): 0.568
relative viability (NCI-H2126; first compound 0.6325 µM): 0.532
relative viability (NCI-H2126; first compound 2 µM): 0.513
relative viability (NCI-H2126; first compound 6.325 µM): 0.577
relative viability (NCI-H2126; first compound 20 µM): 0.531
relative viability (NCI-H1437; first compound 0.2 µM): 0.322
relative viability (NCI-H1437; first compound 0.6325 µM): 0.331
relative viability (NCI-H1437; first compound 2 µM): 0.259
relative viability (NCI-H1437; first compound 6.325 µM): 0.298
relative viability (NCI-H1437; first compound 20 µM): 0.294
relative viability (ChaGo-K-1; first compound 0.2 µM): 0.481
relative viability (ChaGo-K-1; first compound 0.6325 µM): 0.439
relative viability (ChaGo-K-1; first compound 2 µM): 0.514
relative viability (ChaGo-K-1; first compound 6.325 µM): 0.503
relative viability (ChaGo-K-1; first compound 20 µM): 0.459
relative viability (NCI-H2405; first compound 0.2 µM): 0.296
relative viability (NCI-H2405; first compound 0.6325 µM): 0.401
relative viability (NCI-H2405; first compound 6.325 µM): 0.288
relative viability (NCI-H2405; first compound 20 µM): 0.0656
relative viability (NCI-H2170; first compound 0.2 µM): 0.418
relative viability (NCI-H2170; first compound 0.6325 µM): 0.416
relative viability (NCI-H2170; first compound 2 µM): 0.38
relative viability (NCI-H2170; first compound 6.325 µM): 0.405
relative viability (NCI-H2170; first compound 20 µM): 0.376
